Data: ChEMBL document CHEMBL4396950, “A rational search for discovering potential neutraligands of human complement fragment 5a (hC5a)” (Bioorg Med Chem, 2019)
Activity calls are given as the source filed them. The rule behind the calls is not given here.

Key:
Complement C5 [1] = target: T1, Complement C5 (Homo sapiens, UniProt P01031); experiment: Binding affinity to human C5a assessed as Potassium iodide-induced quenching by measuring Stern-Volmer quenching constant at 1 uM by fluorescence analysis
Complement C5 [2] = target: T1, Complement C5; experiment: Binding affinity to human C5a assessed as dissociation constant after 1 hr by circular dichroism analysis
Complement C5 [3] = target: T1, Complement C5; experiment: Induction of recombinant human C5a destabilization assessed as intrinsically disordered structure at 8 M incubated for 1 hr by fluorescence analysis
Complement C5 [4] = target: T1, Complement C5; experiment: Induction of recombinant human C5a destabilization assessed as intrinsically disordered structure at 8 M incubated for overnight by fluorescence analysis
Complement C5 [5] = target: T1, Complement C5; experiment: Induction of recombinant human C5a destabilization assessed as intrinsically disordered structure at 2 to 8 M by circular dichroism analysis
Complement C5 [6] = target: T1, Complement C5; experiment: Induction of recombinant human C5a destabilization assessed as protein unfolding at 6 M after 1 hr by fluorescence analysis
Complement C5 [7] = target: T1, Complement C5; experiment: Induction of recombinant human C5a destabilization assessed as intrinsically disordered structure at 2 to 4 M by circular dichroism analysis
Complement C5 [8] = target: T1, Complement C5; experiment: Induction of recombinant human C5a destabilization assessed as protein unfolding at 6 M by circular dichroism analysis
Complement C5 [9] = target: T1, Complement C5; experiment: Induction of recombinant human C5a destabilization assessed as protein unfolding at 6 M incubated for overnight by fluorescence analysis
Complement C5 [10] = target: T1, Complement C5; experiment: Binding affinity to human C5a assessed as loss of secondary structure by measuring red shift in absorption maxima at 10 to 100 uM by fluorescence analysis
Complement C5 [11] = target: T1, Complement C5; experiment: Induction of human recombinant C5a unfolding by circular dichroism analysis
Complement C5 [12] = target: T1, Complement C5; experiment: Binding affinity to recombinant human C5a assessed as loss of super secondary structure at > 10 uM incubated for 1 hr at 4 degC by circular dichroism analysis
Complement C5 [13] = target: T1, Complement C5; experiment: Binding affinity to human C5a assessed as induction of conformational change with no shift in absorption maxima at 1 uM by fluorescence analysis
Complement C5 [14] = target: T1, Complement C5; experiment: Binding affinity to recombinant human C5a assessed as conformational change at 1 to 100 uM incubated for 1 hr at 4degC by circular dichroism analysis
Complement C5 [15] = target: T1, Complement C5; experiment: Binding affinity to recombinant human C5a assessed as conformational change =< 1 uM at 4 degC incubated for 1 hr by circular dichroism analysis
Complement C5 [16] = target: T1, Complement C5; experiment: Induction of human recombinant C5a destabilization assessed as protein structure helicity up to 10 uM by circular dichroism analysis

Work on CC(C(=O)O)c1ccc2c(c1)[nH]c1ccc(Cl)cc12 (stereo not drawn) [CARPROFEN] yielded a KSV (Complement C5 [1]) of 2.6 M⁻¹ and a Kd (Complement C5 [2]) of 580 nM.
NC(N)=O was tested, and the Activity (Complement C5 [3]) was “Active”, the Activity (Complement C5 [4]) was “Active” and the Activity (Complement C5 [5]) was “Active”.
In the case of CC(=O)N[C@@H](Cc1c[nH]c2ccccc12)C(N)=O, the KSV (Complement C5 [1]) is reported as 12.4 M⁻¹.
In the case of O=C(c1ccc(OCCN2CCCCC2)cc1)c1c(-c2ccc(O)cc2)sc2cc(O)ccc12 [RALOXIFENE], the KSV (Complement C5 [1]) is reported as 1.1 M⁻¹ and the Kd (Complement C5 [2]) is reported as 710 nM.
In the case of O=C(O)CCc1nc(-c2ccccc2)c(-c2ccccc2)o1 [OXAPROZIN], the KSV (Complement C5 [1]) is reported as 4.3 M⁻¹ and the Kd (Complement C5 [2]) is reported as 640 nM.
For N=C(N)N, the Activity (Complement C5 [6]) was “Active”, the Activity (Complement C5 [7]) was “Active” and the Activity (Complement C5 [8]) was “Active”. The Activity (Complement C5 [9]) was “Active”.
In the case of CC1=C(CC(=O)O)c2cc(F)ccc2/C1=C\c1ccc([S+](C)[O-])cc1 (stereo not drawn), the Activity (Complement C5 [10]) is reported as “Active”, the Activity (Complement C5 [11]) is reported as “Active” and the Activity (Complement C5 [12]) is reported as “Active”. For the same molecule, the Activity (Complement C5 [13]) was “Active”, the Activity (Complement C5 [14]) was “Active” and the Activity (Complement C5 [15]) was “Active”. For the same molecule, the Activity (Complement C5 [16]) was 5%, the KSV (Complement C5 [1]) was 2.5 M⁻¹ and the Kd (Complement C5 [2]) was 570 nM.
